We go through seven compounds from patent US20060030574A1, “Quinazoline derivatives useful for the treatment of peripheral arterial disease and as phosphodiesterase inhibitors” (Shire Holdings AG, priority 2004, published 2006).

One data set deals with Phosphodiesterase II (h) (Homo sapiens, UniProt O00408). Briefly: Phosphodiesterase II (h) inhibition. Format: biochemical.
The target of data set [1] is Phosphodiesterase III (h) (Homo sapiens, UniProt Q14432). Briefly: Phosphodiesterase III (h) inhibition. The data set is classed as biochemical.
For the next data set, the system named is Phosphodiesterase IV (h). Briefly: Phosphodiesterase IV (h) inhibition. The note with it: 10 μM; percent inhibition of control activity, mean values, n = 2. Format: biochemical, human.
Another data set has as its target T1, Phosphodiesterase VI (Bos taurus, UniProt P11541+P23439).
T1 sequence (P11541 2-856): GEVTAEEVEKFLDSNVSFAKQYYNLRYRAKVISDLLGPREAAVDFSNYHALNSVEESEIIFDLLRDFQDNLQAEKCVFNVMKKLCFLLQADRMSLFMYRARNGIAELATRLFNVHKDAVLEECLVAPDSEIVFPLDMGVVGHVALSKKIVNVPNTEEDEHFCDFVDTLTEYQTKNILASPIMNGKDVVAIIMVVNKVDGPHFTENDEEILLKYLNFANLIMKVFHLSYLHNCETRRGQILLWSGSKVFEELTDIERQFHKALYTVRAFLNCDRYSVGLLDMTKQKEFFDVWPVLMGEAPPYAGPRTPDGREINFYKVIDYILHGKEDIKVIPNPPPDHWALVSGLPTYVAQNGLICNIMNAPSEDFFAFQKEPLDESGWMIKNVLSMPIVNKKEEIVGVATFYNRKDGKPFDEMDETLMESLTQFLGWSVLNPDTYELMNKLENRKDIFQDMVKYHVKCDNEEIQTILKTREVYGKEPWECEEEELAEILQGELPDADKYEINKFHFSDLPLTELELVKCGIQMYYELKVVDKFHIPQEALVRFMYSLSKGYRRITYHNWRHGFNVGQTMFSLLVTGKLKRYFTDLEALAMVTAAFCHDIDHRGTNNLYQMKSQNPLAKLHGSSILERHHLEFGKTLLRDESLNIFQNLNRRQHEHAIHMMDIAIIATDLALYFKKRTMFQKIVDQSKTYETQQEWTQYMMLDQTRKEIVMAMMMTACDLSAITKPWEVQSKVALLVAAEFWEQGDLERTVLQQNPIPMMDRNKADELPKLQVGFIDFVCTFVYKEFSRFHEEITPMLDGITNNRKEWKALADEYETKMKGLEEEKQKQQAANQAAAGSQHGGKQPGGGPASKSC
T1 sequence (P23439 2-850): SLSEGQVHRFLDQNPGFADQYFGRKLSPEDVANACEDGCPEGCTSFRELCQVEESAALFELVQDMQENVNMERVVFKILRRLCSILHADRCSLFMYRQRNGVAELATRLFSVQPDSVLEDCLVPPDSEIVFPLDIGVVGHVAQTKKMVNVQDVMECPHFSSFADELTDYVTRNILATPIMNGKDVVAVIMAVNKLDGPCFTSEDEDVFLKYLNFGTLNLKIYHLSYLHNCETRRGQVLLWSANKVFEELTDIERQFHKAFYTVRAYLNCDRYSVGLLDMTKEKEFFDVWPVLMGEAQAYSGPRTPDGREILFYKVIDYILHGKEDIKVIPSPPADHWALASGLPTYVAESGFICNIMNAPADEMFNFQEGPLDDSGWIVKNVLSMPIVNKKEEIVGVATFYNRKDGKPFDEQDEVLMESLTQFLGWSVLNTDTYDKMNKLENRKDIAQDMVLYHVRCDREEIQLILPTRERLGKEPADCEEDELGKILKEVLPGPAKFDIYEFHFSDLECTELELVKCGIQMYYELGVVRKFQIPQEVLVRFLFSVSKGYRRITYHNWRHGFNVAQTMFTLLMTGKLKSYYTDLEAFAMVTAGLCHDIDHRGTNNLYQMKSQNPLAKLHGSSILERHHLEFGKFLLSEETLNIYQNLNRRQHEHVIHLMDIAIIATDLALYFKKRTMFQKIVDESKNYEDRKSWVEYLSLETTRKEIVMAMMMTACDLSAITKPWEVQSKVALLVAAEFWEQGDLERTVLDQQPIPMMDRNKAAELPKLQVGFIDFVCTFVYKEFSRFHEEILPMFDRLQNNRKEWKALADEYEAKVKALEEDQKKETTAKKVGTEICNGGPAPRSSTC
T1 sequence (P04972 1-87 partner): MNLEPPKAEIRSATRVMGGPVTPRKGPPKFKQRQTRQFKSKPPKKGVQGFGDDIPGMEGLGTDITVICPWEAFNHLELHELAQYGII
Briefly: Phosphodiesterase VI inhibition. Format: biochemical. The procedure:
The IC50 value against PDEVI was determined.

The target of another data set is Phosphodiesterase V (h) (Homo sapiens, UniProt O76074). Briefly: Phosphodiesterase V (h) inhibition. Format: biochemical. The text has this: (§1) The profile of activity against a selection of phosphodiesterases (I-VI) was investigated. The methods used for the evaluation of the biological activity are all well known in the art. See for example, Weishaar et al; Biochem. Pharmacol., 35:787-800.

For the next data set, the system named is Phosphodiesterase I.
Excerpt: as §1

Setting [2] is: Hill coefficient of the reference compound.
Setting [3] is: Hill coefficient of the test compound.

Each structure is given as a SMILES string. Values joined by “and” are separate entries in the source; they are usually repeats but may differ in a detail not shown here. Equal entries are not always repeated. Where two headings read alike, the source gives them in different places.

Chain of Phosphodiesterase II (h) (O00408 whole entry): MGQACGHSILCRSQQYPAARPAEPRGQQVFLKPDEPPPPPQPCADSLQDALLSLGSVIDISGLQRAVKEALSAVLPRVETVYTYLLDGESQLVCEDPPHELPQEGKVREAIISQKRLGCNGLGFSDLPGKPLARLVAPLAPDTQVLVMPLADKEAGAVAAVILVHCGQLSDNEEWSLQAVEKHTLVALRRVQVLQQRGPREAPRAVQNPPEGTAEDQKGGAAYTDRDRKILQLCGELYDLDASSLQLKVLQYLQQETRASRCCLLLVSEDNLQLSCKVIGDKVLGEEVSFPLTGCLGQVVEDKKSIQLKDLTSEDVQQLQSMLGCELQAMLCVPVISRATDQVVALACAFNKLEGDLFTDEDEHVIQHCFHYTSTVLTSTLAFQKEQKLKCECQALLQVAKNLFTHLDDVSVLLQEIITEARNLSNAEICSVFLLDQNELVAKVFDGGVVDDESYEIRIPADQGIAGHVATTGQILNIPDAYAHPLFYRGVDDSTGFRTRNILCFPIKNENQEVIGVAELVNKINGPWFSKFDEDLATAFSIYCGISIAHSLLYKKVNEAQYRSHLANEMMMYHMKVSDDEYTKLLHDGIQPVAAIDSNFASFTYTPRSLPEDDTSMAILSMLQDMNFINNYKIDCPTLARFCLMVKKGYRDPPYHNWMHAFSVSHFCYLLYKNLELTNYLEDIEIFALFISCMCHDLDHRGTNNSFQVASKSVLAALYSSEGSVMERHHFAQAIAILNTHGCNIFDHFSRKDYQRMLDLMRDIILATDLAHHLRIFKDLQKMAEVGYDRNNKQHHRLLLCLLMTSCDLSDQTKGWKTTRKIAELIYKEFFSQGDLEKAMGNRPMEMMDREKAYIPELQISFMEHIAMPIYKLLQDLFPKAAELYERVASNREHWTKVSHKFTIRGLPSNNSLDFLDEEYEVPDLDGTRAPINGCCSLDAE
Chain of Phosphodiesterase III (h) (Q14432 whole entry): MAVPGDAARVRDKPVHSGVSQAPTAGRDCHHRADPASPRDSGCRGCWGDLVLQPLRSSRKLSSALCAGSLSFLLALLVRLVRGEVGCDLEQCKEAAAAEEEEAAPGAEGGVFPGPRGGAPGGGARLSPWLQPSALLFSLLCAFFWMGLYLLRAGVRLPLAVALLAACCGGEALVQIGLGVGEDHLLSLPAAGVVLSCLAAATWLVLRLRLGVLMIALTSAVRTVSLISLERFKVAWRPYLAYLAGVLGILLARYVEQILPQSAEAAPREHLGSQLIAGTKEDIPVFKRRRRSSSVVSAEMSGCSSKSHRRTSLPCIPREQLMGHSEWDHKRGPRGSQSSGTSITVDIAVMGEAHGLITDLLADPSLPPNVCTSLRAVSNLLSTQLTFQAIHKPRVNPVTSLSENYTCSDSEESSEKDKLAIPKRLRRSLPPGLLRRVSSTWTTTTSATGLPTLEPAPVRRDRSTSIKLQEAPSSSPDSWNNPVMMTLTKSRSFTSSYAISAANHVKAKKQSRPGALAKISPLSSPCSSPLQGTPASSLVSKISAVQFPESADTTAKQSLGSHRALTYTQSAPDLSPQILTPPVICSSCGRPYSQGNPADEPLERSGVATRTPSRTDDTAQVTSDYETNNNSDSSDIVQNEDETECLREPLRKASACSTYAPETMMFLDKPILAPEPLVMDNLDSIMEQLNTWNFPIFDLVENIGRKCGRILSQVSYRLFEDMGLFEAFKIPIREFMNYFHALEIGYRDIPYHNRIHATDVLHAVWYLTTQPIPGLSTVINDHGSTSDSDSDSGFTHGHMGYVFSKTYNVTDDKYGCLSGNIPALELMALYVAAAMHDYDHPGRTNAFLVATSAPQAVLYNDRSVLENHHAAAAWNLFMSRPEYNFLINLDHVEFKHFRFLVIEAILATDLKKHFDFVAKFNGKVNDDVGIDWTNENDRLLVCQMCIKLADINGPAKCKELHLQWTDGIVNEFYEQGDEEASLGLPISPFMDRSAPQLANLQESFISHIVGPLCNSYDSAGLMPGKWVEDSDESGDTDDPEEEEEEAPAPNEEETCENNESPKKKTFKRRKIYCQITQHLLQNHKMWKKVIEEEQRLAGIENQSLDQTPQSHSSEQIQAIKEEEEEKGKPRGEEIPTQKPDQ

The term IC50 denotes the concentration needed to halve the response being measured. `CCCCCC[C@@H]([C@@H](C)O)n1cnc2c(N)ncnc21` (racemic) [EHNA]: the “Reference compounds (nH)” value at Phosphodiesterase II (h) (setting [2]) is “(0.7)”. In addition, on Phosphodiesterase II (h) (control value for the reference compound, read-out: Reference compounds IC50), the IC50 amounted to 2600 nM.

Take `O=C1NC2=NCc3c(ccc(Cl)c3Cl)N2C1O` (stereo not shown) [Compound#5, (6,7-Dichloro-1-hydroxy-3,5-dihydro-imidazo[1,2-a]quinazolin-2-one)]: the “(nH)” value in data set [1] (setting [3]) was 0.4.

A word on the % inhibition: it is the drop in the measured response relative to a control, in per cent. Read a high % inhibition as a strong effect. As usually defined, the inhibition is how much of the control response was suppressed. As to `O=CC(=O)NC1=Nc2ccc(Cl)c(Cl)c2CN1` [Compound#1, N-(5,6-dichloro-3,4-dihydroquinazolin-2-yl)-2-oxoacetamide], the “% inhibition” value with Phosphodiesterase IV (h) is reported as “— (The symbol - indicates an inhibition of less than 10%.)”; with Phosphodiesterase I (10 μM, percent inhibition of control activity, mean values, n = 2) it was 26%. In addition, the inhibition at 10 µM at Phosphodiesterase VI was 89%; at Phosphodiesterase II (h), < 10%; at Phosphodiesterase V (h) it was 64%; in data set [1] it was 97%. In addition, the “(nH)” value on Phosphodiesterase VI (setting [3]) is “(1.0)”. Moreover, the IC50 in data set [1] (average of two separate occasions, read-out: IC50 (average)) was 0.9 nM; in data set [1] (test compound, assay 1 and assay 2 (two separate occasions), read-out: IC50) it was 0.69 nM and 1.1 nM.

Consider `OCCN(CCO)c1nc(N2CCCCC2)c2nc(N(CCO)CCO)nc(N3CCCCC3)c2n1` [dipyridamole, reference compound], for which, at Phosphodiesterase V (h) (setting [2]), the “Reference compounds (nH)” value is recorded as “(1.3)”.

In the case of `COCc1nc2c([nH]1)c(=O)n(C)c(=O)n2CC(C)C` [8-methoxy-IBMX, reference compound], at Phosphodiesterase I (read-out: Reference compounds IC50, control value for the reference compound), the IC50 amounted to 2410 nM.

`Cc1[nH]c(=O)c(C#N)cc1-c1ccncc1` [milrinone, reference compound]: the “Reference compounds (nH)” value in data set [1] (setting [2]) is reported as 0.6.

For orientation: melting point means the temperature of the solid-liquid transition. As for `O=C1NC2=Nc3ccc(Cl)c(Cl)c3CN2C1O` (stereo not shown) [Compound #3, 6,7-dichloro-3-hydroxy-1,5-dihydro-imidazo[2,1-b]quinazolin-2-one], the melting point is 170 °C (dec.).
